# Test results published in ChEMBL document CHEMBL1139529, “Design of small-sized libraries by combinatorial assembly of linkers and functional groups to a given scaffold: application to the structure-based optimization of a phosphodiesterase 4 inhibitor” (J Med Chem, 2005).
# Target: Phosphodiesterase 4 (Bos taurus)
# Assay: In vitro inhibition of bovine smooth muscle phosphodiesterase 4
row,Structure (SMILES),IC50 [µM]
1,COc1ccc(-c2cc(Cc3ccccc3)c(O)nn2)cc1OC,8
2,COc1ccc(-c2ccc(=O)n(CCCCCCN=C(N)N)n2)cc1OC,60
3,COc1ccc(-c2cc(CCCc3ccccc3)c(O)nn2)cc1OC,> 10
4,COc1ccc(-c2ccc(=O)n(CCCCCc3ccccc3)n2)cc1OC,0.0009
5,COc1ccc(-c2ccc(=O)n(CCCCCCN)n2)cc1OC,0.02
6,COc1ccc(-c2ccc(=O)n(CCCc3ccccc3)n2)cc1OC,0.02
7,COc1ccc(-c2ccc(=O)n(Cc3ccccc3)n2)cc1OC,0.06
8,COc1ccc(-c2ccc(O)nn2)cc1OC,2
9,COc1ccc(-c2ccc(=O)n(CCCCCCc3ccccc3)n2)cc1OC,0.08
